Consider 13 molecules from ChEMBL document CHEMBL5727895, “Nitrogen-containing heteroaryl compound and pharmaceutical use thereof” (2020).

Structures are written as SMILES.

By IC50 is commonly meant the concentration that gives 50% inhibition.

A short description of this assay: Evaluation of GLUT9 Inhibitory Activity: Uricase/Hyper transiently-transfected human GLUT9 stably expressing cells or mock cells (blank) were seeded in a 96 well plate (Corning) at 1.6×10^5 cells/well, and cultured overnight at 37° C., 5% CO2. D-MEM/high glucose (Wako Pure Chemical Industries, Ltd.) containing 10% Fetal Bovine Serum (Lifetechnology) and 100 units/ml penicillin/100 μg/ml streptomycin (GIBCO) was used as a medium. High K− buffer (129.8 mM KCl, 1.2 mM KH2PO4, 1.2 mM MgSO4.7H2O, 1.3 mM CaCl2. 2H2O, 25 mM HEPES, pH 7.4 with 1 M Tris) and the medium were mixed in equal amount to prepare Assay Buffer. The medium in each well was removed, and the test compound solution (final 1% DMSO) diluted with Assay Buffer was added thereto at 50 μl/well, and the mixture was left stand at room temperature for 30 to 60 min. For the solvent control and blank, Assay Buffer containing DMSO alone was added at 50 μl/well, and the mixture was left stand at room temperature for 30 to 60 min. In addition, uric acid solution (containing [14C]uric acid as a tracer) diluted with Assay Buffer was added to each well at 15 μl/well (final 300 μM uric acid), and the uptake reaction was performed at room temperature for 6 min. After the completion of the reaction, the cells were washed three times with ice-cooled Wash Buffer (Hank's Balanced Salt Solution containing 0.01% Bovine Serum Albumin) at 150 μl/well, and 0.1N aqueous NaOH solution was added thereto at 25 μl/well to dissolve the cell. MicroScint-20 (Perkin-Elmer) was added thereto at 150 μl/well, the plate was shaked, and CPM of [14C] was measured by TopCount NXT (Perkin-Elmer).Data was obtained by deducting average of CPM in blank well from average of CPM in each treated well. The inhibitory rate of the test compound in each concentration was calculated from the following formula: [(A−B)/A]×100, A is data of solvent control, B is data of test compound treatment.
Consider `COc1ccc(-c2ncc(CC3CCCC3)cc2-c2ccc(C(=O)O)cc2)cc1`, for which the IC50 was 842 nM.
With `COc1ccc(-c2ncc(CC3CCC3)cc2-c2ccc(C(=O)O)cc2)cc1`, the IC50 was 192 nM.
On to `CCCCc1cnc(-c2ccc(C)cc2)c(-c2ccc(C(=O)O)cc2)c1`, for which the IC50 is 340 nM.
Regarding `CCCCc1cnc(-c2ccc(OC)cc2)c(-c2ccc(C(=O)O)cc2)c1F`, the IC50 was 83.7 nM.
The figure for `CCCCCc1cnc(-c2ccc(OC)cc2)c(-c2ccc(C(=O)O)cc2)c1` is 50.6 nM.
Take `COCCCc1cnc(-c2ccc(OC)cc2)c(-c2ccc(CCC(=O)O)cc2)n1`: the IC50 is 91.8 nM.
The value for `CCCCc1cnc(-c2ccc(OC)c(F)c2)c(-c2ccc(C(=O)O)cc2)c1` was 89.2 nM; that for `CCCc1cnc(-c2cc(F)c(OC)c(F)c2)c(-c2ccc(C(=O)O)cc2)c1` was 72 nM; that for `CCCCc1cnc(-c2ccc(OC)cc2)c(-c2ccc(C(=O)O)cc2)n1` was 141 nM.
The figure for `COCCCCc1cnc(-c2ccc(C(F)(F)F)cc2)c(-c2ccc(C(=O)O)cc2)n1` is 158 nM; for `CCCc1cnc(-c2ccc(OC)cc2)c(-c2ccc(C(=O)O)cc2)c1` it is 89 nM.
On to `CCCCc1cnc(-c2cc(F)c(OC)c(F)c2)c(-c2ccc(C(=O)O)cc2)c1`, for which the IC50 is 57.8 nM.
The value for `CCCCc1cnc(-c2ccc(CC)c(C)c2)c(-c2ccc(C(=O)O)cc2)n1` was 150 nM.
